Experimental data published in patent publication US12440496B2, “Natriuretic peptide receptor a agonists useful for the treatment of cardiometabolic diseases, kidney disease and diabetes” (Merck Sharp & Dohme LLC, priority 2019, dated 2025).

Biological target: T1, hNPRA (Homo sapiens, UniProt P16066)
T1 construct: expressed in transfected cells
T1 sequence (P16066 33-1061): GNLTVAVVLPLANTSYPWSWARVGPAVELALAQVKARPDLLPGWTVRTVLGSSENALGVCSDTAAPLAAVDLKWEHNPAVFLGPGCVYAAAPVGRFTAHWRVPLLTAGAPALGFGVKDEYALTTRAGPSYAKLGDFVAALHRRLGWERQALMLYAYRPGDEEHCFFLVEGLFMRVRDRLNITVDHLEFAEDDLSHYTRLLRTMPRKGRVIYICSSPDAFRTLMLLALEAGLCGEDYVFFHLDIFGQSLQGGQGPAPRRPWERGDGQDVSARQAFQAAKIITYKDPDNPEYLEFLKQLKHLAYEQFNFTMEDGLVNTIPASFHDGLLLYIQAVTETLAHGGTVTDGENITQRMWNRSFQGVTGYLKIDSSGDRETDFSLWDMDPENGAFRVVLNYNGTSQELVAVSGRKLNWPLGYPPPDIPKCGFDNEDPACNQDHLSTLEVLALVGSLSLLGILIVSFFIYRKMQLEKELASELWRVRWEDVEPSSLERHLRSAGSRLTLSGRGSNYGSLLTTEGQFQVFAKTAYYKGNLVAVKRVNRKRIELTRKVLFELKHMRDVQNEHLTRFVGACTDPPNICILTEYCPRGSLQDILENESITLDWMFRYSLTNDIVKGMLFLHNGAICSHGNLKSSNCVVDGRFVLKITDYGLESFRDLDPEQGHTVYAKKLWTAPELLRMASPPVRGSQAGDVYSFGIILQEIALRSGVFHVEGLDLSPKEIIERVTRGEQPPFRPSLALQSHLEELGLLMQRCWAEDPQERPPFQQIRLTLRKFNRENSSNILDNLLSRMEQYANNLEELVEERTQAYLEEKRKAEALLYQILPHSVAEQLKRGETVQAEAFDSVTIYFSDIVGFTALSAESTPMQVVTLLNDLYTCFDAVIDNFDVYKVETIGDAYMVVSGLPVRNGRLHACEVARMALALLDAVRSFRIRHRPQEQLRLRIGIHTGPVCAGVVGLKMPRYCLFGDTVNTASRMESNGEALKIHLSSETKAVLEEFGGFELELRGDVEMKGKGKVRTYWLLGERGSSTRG
Experiment: NPRA Functional Cell Assay (cGMP HTRF, NPRA HEK JumpIn stable cells)
Format: cell-based
Settings: cGMP production, 1 hour at 37° C., 10-point dose response
Outline: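 cGMP HTRF read-out after 1 hour compound treatment at 37° C. of human NPRA-expressing HEK JumpIn cells, 1500 cells/well, in buffer with phosphodiesterase inhibitors IBMX and RO20 (100 uM each). Signal converted to [cGMP] by calibration curve; EC50s fitted by 4-parameter logistic; 50 nM h-ANP as positive response.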

First: CC(C)(C)[C@H]1CCc2nc3sc(C(=O)N[C@H](CCN4CCC(O)CC4)c4ccc(-c5ccc(=O)[nH]c5)cc4)nc3cc2C1 (racemic) [Example 73, rac-(7S)-7-tert-butyl-N-[rac-(1R)-3-(4-hydroxy-1-piperidyl)-1-[4-(6-oxo-1H-pyridin-3-yl)phenyl]propyl]-5,6,7,8-tetrahydrothiazolo[5,4-b]quinoline-2-carboxamide]
Second: CC(C)(C)[C@H]1CCc2nc3sc(C(=O)N[C@H](CCN4CCC(O)C4)c4ccc(-c5ccc(=O)[nH]c5)cc4)cc3cc2C1 (mixture of isomers) [Example 41, rac-(6S)-6-tert-butyl-N-[rac-(1R)-3-(3-hydroxypyrrolidin-1-ium-1-yl)-1-[4-(6-oxo-1H-pyridin-3-yl)phenyl]propyl]-5,6,7,8-tetrahydrothieno[2,3-b]quinoline-2-carboxamide;formate]
The EC50 of the first is 2.4-fold lower: 269 nM for the first, 656 nM for the second. The first is the more potent here.

First: CC(C)(C)[C@H]1CCc2nc3sc(C(=O)N[C@H](CCN4CCCCC4)c4ccc(-c5cnc(O)c(N)c5)cc4)cc3cc2C1 [Example 241, (6S)-N-{(1R)-1-[4-(5-amino-6-hydroxypyridin-3-yl)phenyl]-3-piperidin-1-ylpropyl}-6-tert-butyl-5,6,7,8-tetrahydrothieno[2,3-b]quinoline-2-carboxamide]
Second: CC(C)(C)[C@H]1CCc2nc3sc(C(=O)N[C@H](CCN4CCCC4)c4ccc(-c5ccc(=O)[nH]c5)cc4)cc3cc2C1 (racemic) [Example 33, rac-(6S)-6-tert-butyl-N-[rac-(1R)-1-[4-(6-oxo-1H-pyridin-3-yl)phenyl]-3-pyrrolidin-1-ium-1-yl-propyl]-5,6,7,8-tetrahydrothieno[2,3-b]quinoline-2-carboxamide;formate]
The EC50 of the first is 3.4-fold higher: 1730 nM for the first, 511 nM for the second. The second is the more potent here.

Compared with `CN(CCO)CC[C@@H](NC(=O)c1nc2cc3c(nc2s1)CC[C@H](C(C)(C)C)C3)c1ccc(NS(=O)(=O)N(C)C)nc1` (racemic) [Example 206, 2-hydroxyethyl-methyl-[rac-(3R)-3-[6-(dimethylsulfamoylamino)-3-pyridyl]-3-[[rac-(7S)-7-tert-butyl-5,6,7,8-tetrahydrothiazolo[5,4-b]quinoline-2-carbonyl]amino]propyl]ammonium; 2,2,2-trifluoroacetate], `CC(C)(C)[C@H]1CCc2nc3sc(C(=O)N[C@H](CCN4CCC(O)CC4)c4ccc(N5CCC(O)C5)nc4)nc3cc2C1` (mixture of isomers) [Example 190, rac-(7S)-7-tert-butyl-N-[rac-(1R)-3-(4-hydroxy-1-piperidyl)-1-[6-(3-hydroxypyrrolidin-1-yl)-3-pyridyl]propyl]-5,6,7,8-tetrahydrothiazolo[5,4-b]quinoline-2-carboxamide] is 2.8-fold higher in EC50: 674 nM for the first, 1910 nM for the second. The first is the more potent here.

First: CC(C)(C)[C@H]1CCc2nc3sc(C(=O)N[C@H](CCN4CCC(O)CC4)c4ccc(-c5csc(C(=O)O)c5)nc4)nc3cc2C1 (racemic) [Example 197, 4-[5-[rac-(1R)-3-(4-hydroxypiperidin-1-ium-1-yl)-1-[[rac-(7S)-7-tert-butyl-5,6,7,8-tetrahydrothiazolo[5,4-b]quinoline-2-carbonyl]amino]propyl]-2-pyridyl]thiophene-2-carboxylic acid; 2,2,2-trifluoroacetate]
Second: CC(C)(C)[C@H]1CCc2nc3sc(C(=O)N[C@H](CCN4CCC(O)CC4)c4ccc(-c5ncc(O)cc5F)cc4)nc3cc2C1 (racemic) [Example 181, rac-(7S)-7-tert-butyl-N-[rac-(1R)-1-[4-(3-fluoro-5-hydroxy-2-pyridyl)phenyl]-3-(4-hydroxypiperidin-1-ium-1-yl)propyl]-5,6,7,8-tetrahydrothiazolo[5,4-b]quinoline-2-carboxamide; 2,2,2-trifluoroacetate]
The EC50 of the first is 2.6-fold lower: 560 nM for the first, 1440 nM for the second.

`CN1CC(NC(=O)c2cccc([C@@H](CCN3CCC(O)CC3)NC(=O)c3nc4cc5c(nc4s3)CC[C@H](C(C)(C)C)C5)c2)CC1=O` (mixture of isomers) [Example 149, rac-(7S)-7-tert-butyl-N-[rac-(1R)-3-(4-hydroxy-1-piperidyl)-1-[3-[(1-methyl-5-oxo-pyrrolidin-3-yl)carbamoyl]phenyl]propyl]-5,6,7,8-tetrahydrothiazolo[5,4-b]quinoline-2-carboxamide] and `CN(C)C1CN(C(=O)c2cccc([C@@H](CCN3CCC(O)CC3)NC(=O)c3nc4cc5c(nc4s3)CC[C@H](C(C)(C)C)C5)c2)C1` (racemic) [Example 148, rac-(7S)-7-tert-butyl-N-[rac-(1R)-1-[3-[3-(dimethylamino)azetidine-1-carbonyl]phenyl]-3-(4-hydroxy-1-piperidyl)propyl]-5,6,7,8-tetrahydrothiazolo[5,4-b]quinoline-2-carboxamide] are the same in EC50: 656 nM for the first, 656 nM for the second.

Compared with `CC(C)(C)[C@H]1CCc2nc3sc(C(=O)N[C@H](CCN[C@H]4COC[C@@H]4O)c4ccc(-c5ccc(=O)[nH]c5)cc4)cc3cc2C1` (racemic) [Example 69, [rac-(3S,4R)-4-hydroxytetrahydrofuran-3-yl]-[rac-(3R)-3-[4-(6-oxo-1H-pyridin-3-yl)phenyl]-3-[[rac-(6S)-6-tert-butyl-5,6,7,8-tetrahydrothieno[2,3-b]quinoline-2-carbonyl]amino]propyl] ammonium;formate], `CC(C)(C)[C@H]1CCc2nc3sc(C(=O)N[C@H](CCN[C@@H]4C[C@@H](O)[C@@H](O)C4)c4ccc(-c5ccc(=O)[nH]c5)cc4)cc3cc2C1` (racemic) [Example 37, [rac-(3R,4S)-3,4-dihydroxycyclopentyl]-[rac-(3R)-3-[4-(6-oxo-1H-pyridin-3-yl)phenyl]-3-[[rac-(6S)-6-tert-butyl-5,6,7,8-tetrahydrothieno[2,3-b]quinoline-2-carbonyl]amino]propyl] ammonium;formate] is 3.2-fold lower in EC50: 1830 nM for the first, 575 nM for the second. The second is the more potent here.

Compared with `CC(C)(C)[C@H]1CCc2nc3sc(C(=O)N[C@H](CCN4CCC(n5ccnc5)CC4)c4cccc(NS(C)(=O)=O)c4)cc3cc2C1` (racemic) [Example 17, ammonium; methylsulfonyl-[3-[rac-(1R)-3-(4-imidazol-1-y1-1-piperidy1)-1-[[rac-(6S)-6-tert-butyl-5,6,7,8-tetrahydrothieno[2,3-b]quinoline-2-carbonyl]amino]propyl]phenyl]azanide], `CC(C)(C)[C@H]1CCc2nc3sc(C(=O)N[C@H](CCN4CCCC(O)C4)c4ccccc4)cc3cc2C1` (stereo partly drawn) [Example 251, (6S)-6-tert-butyl-N-[(1R)-3-(3-hydroxypiperidin-1-yl)-1-phenylpropyl]-5,6,7,8-tetrahydrothieno[2,3-b]quinoline-2-carboxamide] is 2-fold lower in EC50: 1260 nM for the first, 632 nM for the second.

`CC(C)(C)[C@H]1CCc2nc3sc(C(=O)N[C@H](CCN4CCC(O)CC4)c4ccc(N5CCOC5=O)cc4)nc3cc2C1` (racemic) [Example 85] and `CC(C)(C)[C@H]1CCc2nc3sc(C(=O)N[C@H](CCN4CCC(F)CC4)c4ccc(-c5ccc(=O)[nH]c5)cc4)cc3cc2C1` (racemic) [Example 59, rac-(6S)-6-tert-butyl-N-[rac-(1R)-3-(4-fluoropiperidin-1-ium-1-yl)-1-[4-(6-oxo-1H-pyridin-3-yl)phenyl]propyl]-5,6,7,8-tetrahydrothieno[2,3-b]quinoline-2-carboxamide;formate] are within 1.5-fold of each other in EC50: 1020 nM for the first, 1010 nM for the second.

Going from `CC(C)(C)[C@H]1CCc2nc3sc(C(=O)N[C@H](CCN4CCC(C(=O)O)CC4)c4cccc(C(=O)NC5CN(Cc6ccccc6)C5)c4)nc3cc2C1` (racemic) [Example 123, 1-[rac-(3R)-3-[3-{(1-benzylazetidin-3-yl)carbamoyl]phenyl]-3-[[rac-(7S)-7-tert-butyl-5,6,7,8-tetrahydrothiazolo [5,4-b]quinoline-2-carbonyl]amino]propyl] piperidin-1-ium-4-carboxylic acid; 2,2,2-trifluoroacetate] to `CC(C)(C)[C@H]1CCc2nc3sc(C(=O)N[C@H](CCN)c4cccc(C(=O)N[C@H]5CCNC5)c4)cc3cc2C1` [Example 225], the EC50 falls from 657 nM to 292 nM (2.2-fold).

`CC(C)(C)[C@H]1CCc2nc3sc(C(=O)N[C@H](CCN4CCC(C#N)CC4)c4ccc(-c5ccc(=O)[nH]c5)cc4)cc3cc2C1` (racemic) [Example 68, rac-(6S)-6-tert-butyl-N-[rac-(1R)-3-(4-cyanopiperidin-1-ium-1-yl)-1-[4-(6-oxo-1H-pyridin-3-yl)phenyl]propyl]-5,6,7,8-tetrahydrothieno[2,3-b]quinoline-2-carboxamide;formate] was tested, and the EC50 was 1810 nM.
